# According to publication PMC10824269 (Journal of the American Chemical Society, 2021):
# Molecular target: GsTyDC/DDC (Gloriosa superba, UniProt A0A7D5Q853)
# Type: cell-based
# Settings: leaves of N. benthamiana
smiles,measurement,value
N[C@@H](Cc1ccc(O)c(O)c1)C(=O)O [L-DOPA],"LC-MS, transient expression in N. benthamiana",GsTyDC/DDC is capable of acting on act on either L-Tyr or L-DOPA (Figure S15)
